Test results from patent publication US20090317477A1, “COMBINATION OF DEHYDROEPIANDROSTERONE OR DEHYDROEPIANDROSTERONE-SULFATE WITH A GLUCOCORTICOSTEROID FOR TREATMENT OF ASTHMA, CHRONIC OBSTRUCTIVE PULMONARY DISEASE OR ALLERGIC RHINITIS” (priority 2004, published 2009).
“And” between values parts separate entries of the source, which are not always exact repeats. Equal entries are not always repeated.

Key:
[1] = test system: Intracellular adenosine; assay type: in vivo, Fischer 344 rats; conditions: rat
[2] = test system: HT-29 SF cells; assay: DHEA effect on cell cycle (flow cytometry); assay type: cell-based, human
Method: Cells are plated at 10^5/60-mm dish in duplicate. […] Cultures are trypsinized following […] and fixed and stained using a modification of a procedure of Bauer et al., Cancer Res. 46, 3173-3178 (1986). Briefly, cells are collected by centrifugation and resuspended in cold phosphate-buffered saline. Cells are fixed in 70% ethanol, washed, and resuspended in phosphate-buffered saline.
After 24, 48, and 72 hours, cells are harvested, fixed in ethanol, and stained with propidium iodide, and the DNA content/cell is determined by flow cytometric analysis. The percentage of cells in G1, S, and G2M phases is calculated using the Cellfit cell cycle analysis program. S phase is marked by a quadrangle for clarity. Representative histograms from duplicate determinations are shown. The experiment is repeated three times.

[3] = test system: HT-29 SF cells; assay: Reversal of DHEA effect on cell cycle; assay type: cell-based, human; conditions: 25 μM DHEA; increasing exposure time
[4] = test system: HT-29 SF cells; assay: DHEA effect on cell growth
Method: Cell cultures, HT-29 SF cells, which represent a subline of HY-29 cells (ATCC, Rockville, Md.) and are adapted for growth in completely defined serum-free PC-1 medium (Ventrex, Portland, Me.), are obtained. Stock cultures are maintained in this medium at 37° C. (in a humidified atmosphere containing 5% CO2).

[5] = Solid-state stability at 50° C. with and without lactose (DHEA formed, HPLC); assay type: physicochemical; conditions: dihydrate
Text: These conditions are used to stress the formulation in order to predict its long-term stability results. […] The primary degradant is DHEA. […] The materials on accelerated storage become more cohesive with time as evidenced by clumping during sample weighing for chemical analysis. […] This is a considerable disadvantage since lactose is the most commonly used inhalation excipient for dry powder formulations. Continuing with the virtually anhydrous form would mean limiting formulations to neat powder or undertaking more comprehensive safety studies to use a novel excipient.

[6] = Fine particle fraction, single-dose Acu-Breathe device into Andersen impactor; assay type: physicochemical; conditions: aerosol of dihydrate/lactose blend; Test 2; 60 L/min
Method: The single-dose Acu-Breathe device is used for evaluating DHEA-S-dihydrate. Approximately 10 mg of neat DHEA-S-dihydrate powder is filled and sealed into foil blisters. These blisters are actuated into the Andersen 8-stage cascade impactor at flow rates ranging from 30 to 75 L/min with a glass twin-impinger throat. Stages 1-5 of the Andersen impactor are rinsed together to obtain an estimate of the fine particle fraction. Pooling the drug collected from multiple stages into one assay make the method much more sensitive. […] This unique feature of DHEA-S-dihydrate has not been reported in any previous literature. […] Using a carrier with a larger particle size typically improves the aerosol properties of micronized drug substances.
Approximately 25 mg of this powder is filled and sealed in foil blisters and aerosolized using the single-dose device at 60 L/min. The aerosol results for this preliminary powder blend are satisfactory for a respiratory drug delivery system. […] This diameter is smaller than the median diameter measured for micronized DHEA-S-dihydrate by laser diffraction. Irregularly shaped particles can behave aerodynamically as smaller particles since their longest dimension tends to align with the air flow field. Therefore, it is common to see a difference between the two methods. […]

[7] = Solubility of DHEA-S; assay type: physicochemical; conditions: 20 mM Na^+; Ksp of 1316 mM^2 (15° C.)
Text: Inhalation of pure water can produce a cough stimulus. […] The temperature effect is weaker at high NaCl concentrations.

[8] = Nebulizer studies (Pari ProNeb Ultra, LC Plus); assay type: physicochemical; conditions: 0.12% NaCl
Method: The nebulizer is filled with 5 mL of solution and nebulization is continued until the output became visually insignificant (4½ to 5 min.). Nebulizer solutions are tested using a California Instruments AS-6 6-stage impactor with a USP throat. The impactor is run at 30 L/min for 8 s to collect a sample following one minute of nebulization time. At all other times during the experiment, the aerosol is drawn through the by-pass collector at approximately 33 L/min. The collection apparatus, nebulizer, and impactor are rinsed with mobile phase and assayed by HPLC. […] This volume is selected as the practical upper limit for use in a clinical study.

[9] = test system: LPS-induced secretion of TNFα from PBMC; assay: LPS-induced secretion of TNFα from PBMC; assay type: cell-based, human
Method: Thereafter, 1 μg/ml LPS was added to induce the cytokine secretion and the mixture was incubated for 24 h at 37° C. For basal control measurements, LPS was omitted from the incubation medium. Following incubation, the samples were centrifuged at 250× g for 5 min at 4° C. and the supernatants were collected.
The amount of secreted TNF-α present in the supernatant was quantified using an EIA detection kit (R&D systems). The photometric measurements were made with a microplate reader (Ultra, Tecan).
The results are expressed as a percent inhibition of the control secretion induced by LPS in Table 16.

[10] = biological target: T1, Glucocorticoid receptor (Homo sapiens, UniProt P04150); assay: Radioligand binding assay, Glucocorticoid; conditions: 100 μM
T1 sequence (P04150 1-777): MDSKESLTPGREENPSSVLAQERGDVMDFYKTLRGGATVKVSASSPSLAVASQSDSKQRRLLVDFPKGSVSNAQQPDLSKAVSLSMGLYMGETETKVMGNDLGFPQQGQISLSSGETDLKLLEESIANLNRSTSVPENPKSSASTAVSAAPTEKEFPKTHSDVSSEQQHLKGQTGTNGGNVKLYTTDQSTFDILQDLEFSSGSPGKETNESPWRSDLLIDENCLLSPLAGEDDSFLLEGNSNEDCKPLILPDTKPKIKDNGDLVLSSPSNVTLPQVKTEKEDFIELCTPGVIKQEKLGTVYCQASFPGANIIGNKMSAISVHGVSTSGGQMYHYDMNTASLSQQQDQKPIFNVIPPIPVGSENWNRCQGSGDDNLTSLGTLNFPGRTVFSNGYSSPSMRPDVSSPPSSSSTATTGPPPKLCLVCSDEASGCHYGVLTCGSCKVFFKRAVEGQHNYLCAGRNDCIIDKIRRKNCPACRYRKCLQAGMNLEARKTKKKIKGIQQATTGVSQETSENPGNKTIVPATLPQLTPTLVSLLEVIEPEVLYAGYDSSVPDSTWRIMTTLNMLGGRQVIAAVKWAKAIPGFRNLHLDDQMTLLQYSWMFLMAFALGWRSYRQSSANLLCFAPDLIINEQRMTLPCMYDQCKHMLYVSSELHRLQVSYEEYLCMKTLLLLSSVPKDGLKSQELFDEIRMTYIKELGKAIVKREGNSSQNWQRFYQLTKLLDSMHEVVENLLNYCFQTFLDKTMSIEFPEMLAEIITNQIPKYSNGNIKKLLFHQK

[11] = test system: Glucocorticoid, Testosterone, Estrogen ERα, Estrogen ERβ, Progesterone, Vitamin D3 receptors; assay: Radioligand binding assays, steroid receptor panel (statements in words)
[12] = Homo sapiens, PBMC, read-out: percent inhibition of LPS-induced TNFα secretion

## Nc1nc(=O)c2c([nH]1)NCC(CNc1ccc(C(=O)N[C@@H](CCC(=O)O)C(=O)O)cc1)N2C=O (mixture of isomers) [Folinic Acid]
[1]; in vivo
  Intracellular adenosine, Brain: 0.72 ± 0.09
[1]; with DHEA or methyltestosterone
  effect of coadministration of folinic acid on steroid-mediated adenosine depletion: completely abrogate steroid-mediated adenosine depletion

## C[C@]12CC[C@H](O)CC1=CC[C@@H]1[C@@H]2CC[C@]2(C)C(=O)CC[C@@H]12 [DHEA, 3β-hydroxyandrost-5-en-17-one]
[1]; daily for two weeks
  effect on adenosine across organs: multi-organ depletion of adenosine
[2]; 200 μM DHEA
  cell cycle distribution: more rapid increase in the percentage of cells in G1 and a decreased proportion of cells in S phase after 24 hours
[2]; 25, 50, 200 μM, 24-72 hours
  cell cycle effect: G1 block in HT-29 SF cells in a time-and dose-dependent manner
[3]
  effect on proportion of cells in S phase: progressively reduced the proportion of cells in S phase
[4]; 12.5 μM DHEA
  exposure time after which cell number is reduced compared to controls: 72 h
[4]; 25 μM DHEA
  exposure time after which cell number is reduced compared to controls: 48 h
[4]; 50 μM DHEA
  exposure time after which cell number is reduced compared to controls: 48 h
[4]; 200 μM DHEA
  exposure time after which cell number is reduced compared to controls: 24 h
[4]; 12.5-200 μM, 24-72 hours
  inhibition of growth: time- and dose-dependent inhibition of growth

## CC12CCC3C(CC=C4CC(OS(=O)(=O)[O-])CCC43C)C1CCC2=O.[Na+] (centres unmarked) [DHEA-S dihydrate]
[5]; 50° C., 1 week
  Percent DHEA formed: 0.216%
[5]; 50° C., 3 weeks
  Percent DHEA formed: 0.317%
[5]; 50° C., 4 weeks
  Percent DHEA formed: 0.374%
[5]; Control, sealed, 25° C., 4 weeks
  Percent DHEA formed: 0.218%
[5]; Control, sealed, 25° C., first column (Time=0)
  Percent DHEA formed: 0.213%

## C[C@]12CC[C@H](OS(=O)(=O)[O-])CC1=CC[C@@H]1[C@@H]2CC[C@]2(C)C(=O)CC[C@@H]12.[Na+] [DHEA-S, sodium dehydroepiandrostenone sulfate]
[6]
  median diameter of aerosol by cascade impaction: ~2.5 μm
[7]
  calculated solubility of DHEA-S^−: 27.5 mM and 10.7 mg/mL
[8]
  highest solution concentration for a clinical trial formulation (no precipitate during nebulization): approximately 7.5 mg/mL
[9]; DHEAS 30 μM alone
  percent inhibition of LPS-induced TNFα secretion: −2%
[9]; DHEAS 100 μM alone
  percent inhibition of LPS-induced TNFα secretion: 32%
[10]
  binding to the glucocorticosteroid receptor: does not bind to the glucocorticosteroid receptor
[11]
  binding to the steroid receptors: lack of effect on ligand binding on the other four receptors

## C[C@@H]1C[C@H]2[C@@H]3CCC4=CC(=O)C=C[C@]4(C)[C@@]3(F)[C@@H](O)C[C@]2(C)[C@@]1(O)C(=O)CO [Dexamethasone]
[9]; [12]
  inhibition at 0.001 µM: -3%
  inhibition at 0.01 µM: 4%
  inhibition at 0.1 µM: 36%
